Experimental data: patent EP0262903A2, “New acyl derivatives of 20-modified tylosin and desmycosin compounds” (priority 1986, dated 1988)
≈ marks a conversion by molar mass, not a printed value. Where two headings read alike, the source gives them in different places.

What was measured:
Escherichia coli EC14 = test: MIC, standard agar-dilution assay; type: cell-based
Method: (§1) The MIC's in Table II were determined by standard agar-dilution assays. The MIC's in Table III were obtained using conventional broth-dilution microtiter tests.

[1] = tested on: Haemophilus influenzae 76; test: MIC, standard agar-dilution assay; type: cell-based
Method: as §1

[2] = tested on: Haemophilus influenzae C.L.; test: MIC, standard agar-dilution assay; type: cell-based
Method: as §1

[3] = tested on: Klebsiella pneumoniae X68; test: MIC, standard agar-dilution assay; type: cell-based
Method: as §1

[4] = tested on: Pseudomonas aeruginosa X239; test: MIC, standard agar-dilution assay; type: cell-based
Method: as §1

[5] = tested on: Staphylococcus aureus S13E; test: MIC, standard agar-dilution assay; type: cell-based
Method: as §1

[6] = tested on: Staphylococcus aureus V41; test: MIC, standard agar-dilution assay; type: cell-based
Method: as §1

[7] = tested on: Staphylococcus aureus X1.1; test: MIC, standard agar-dilution assay; type: cell-based
Method: as §1

[8] = tested on: Staphylococcus aureus X400; test: MIC, standard agar-dilution assay; type: cell-based
Method: as §1

[9] = tested on: Staphylococcus epidermidis 222; test: MIC, standard agar-dilution assay; type: cell-based
Method: as §1

[10] = tested on: Staphylococcus epidermidis EPI1; test: MIC, standard agar-dilution assay; type: cell-based
Method: as §1

[11] = tested on: Streptococcus faecalis 2041; test: MIC, standard agar-dilution assay; type: cell-based; conditions: Enterococcus faecalis
Method: as §1

[12] = tested on: Streptococcus faecalis X66; test: MIC, standard agar-dilution assay; type: cell-based; conditions: Enterococcus faecalis
Method: as §1

[13] = tested on: Streptococcus pneumoniae Park I; test: MIC, standard agar-dilution assay; type: cell-based
Method: as §1

[14] = tested on: Streptococcus pyogenes C203; test: MIC, standard agar-dilution assay; type: cell-based
Method: as §1

[15] = tested on: Streptococcus pyogenes C203; test: ED50 in mice experimentally infected with S. pyogenes C203; type: in vivo
Method: The formula 1 compounds have shown in vivo antimicrobial activity against experimentally-induced infections in laboratory animals. When two doses of test compound were administered to mice experimentally infected with S. pyogenes C203, the activity observed was measured as an ED₅₀ value [effective dose in mg/kg to protect 50% of the test animals: see Warren Wick, et 5 al., J. Bacteriol. 81, 233-235 (1961)].

[16] = Escherichia coli EC14, agar dilution, read-out: MIC
[17] = Haemophilus influenzae 76, Ampicillin-resistant strain, agar dilution, read-out: MIC
[18] = Haemophilus influenzae C.L., Ampicillin-sensitive strain, agar dilution, read-out: MIC
[19] = Pseudomonas aeruginosa X239, agar dilution, read-out: MIC
[20] = Staphylococcus aureus V41, Penicillin-resistant strain, agar dilution, read-out: MIC
[21] = Staphylococcus aureus X1.1, agar dilution, read-out: MIC
[22] = Staphylococcus aureus X400, Methicillin-resistant strain, agar dilution, read-out: MIC
[23] = Staphylococcus epidermidis 222, agar dilution, read-out: MIC
[24] = Staphylococcus epidermidis EPI1, agar dilution, read-out: MIC
[25] = Streptococcus faecalis 2041, agar dilution, read-out: MIC
[26] = Streptococcus faecalis X66, agar dilution, read-out: MIC
[27] = Streptococcus pneumoniae Park I, agar dilution, read-out: MIC
[28] = Streptococcus pyogenes C203, agar dilution, read-out: MIC
[29] = C203, mice, oral, two doses given 1 and 4 hours post-infection, dose protecting 50% of the test animals, read-out: ED50 Oral
[30] = C203, sc, mice, subcutaneous, two doses given 1 and 4 hours post-infection, dose protecting 50% of the test animals, read-out: ED50 Subcutaneous
[31] = Klebsiella pneumoniae X68, agar dilution, read-out: MIC

SMILES | MIC (Escherichia coli EC14; [16]) [µg/mL] | MIC [1, 17] [µg/mL] | MIC [2, 18] [µg/mL] | MIC ([3]; Klebsiella pneumoniae, X68) [µg/mL] | MIC [4, 19] [µg/mL] | MIC [5] [µg/mL] | MIC [6, 20] [µg/mL] | MIC [7, 21] [µg/mL] | MIC [8, 22] [µg/mL] | MIC [9, 23] [µg/mL] | MIC [10, 24] [µg/mL] | MIC [11, 25] [µg/mL] | MIC [12, 26] [µg/mL] | MIC [13, 27] [µg/mL] | MIC [14, 28] [µg/mL] | ED50 [15, 29] [mg/kg] | ED50 [15, 30] [mg/kg] | also measured
CCC1OC(=O)CC(O)C(C)C(OC2OC(C)C(OC(C)=O)C(N(C)C)C2OC(C)=O)C(CCOc2ccccc2)CC(C)C(=O)C=CC(C)=CC1COC1OC(C)C(OC(C)=O)C(OC)C1OC (centres unmarked) [Compound 1, 2ʹ,4ʹ,4ʹʹ-Tri-O-acetyl-20-DH-20-O-phenyl-desmycosin] | > 128 | > 128 | > 128 | > 128 | > 128 | 4 (≈ 4.1 µM) | 2 (≈ 2.05 µM) | 4 (≈ 4.1 µM) | 4 (≈ 4.1 µM) | 1 (≈ 1.02 µM) | 4 (≈ 4.1 µM) | 128 (≈ 131 µM) | 64 (≈ 65.6 µM) | 8 (≈ 8.2 µM) | 1 (≈ 1.02 µM) |  |  | 
CCC1OC(=O)CC(O)C(C)C(OC2OC(C)C(O)C(N(C)C)C2O)C(CCOc2ccccc2)CC(C)C(=O)C=CC(C)=CC1COC1OC(C)C(OC(=O)Cc2ccccc2)C(OC)C1OC (centres unmarked) [Compound 4, 20-DH-20-O-Phenyl-4ʹʹ-O-(phenylacetyl)-desmycosin] |  |  |  | > 128 |  | 2 (≈ 2.07 µM) |  |  |  |  |  |  |  |  |  |  |  | MIC (Escherichia coli EC14; Escherichia coli, EC14): > 128 µg/mL; MIC ([1]; Haemophilus influenzae, 76): 128 µg/mL (≈ 132 µM); MIC ([2]; Haemophilus influenzae): 128 µg/mL (≈ 132 µM); MIC ([4]; Pseudomonas aeruginosa, X239): > 128 µg/mL; MIC ([6]; Staphylococcus aureus, V41): 2 µg/mL (≈ 2.07 µM); MIC ([7]; Staphylococcus aureus, X1.1): 2 µg/mL (≈ 2.07 µM); MIC ([8]; Staphylococcus aureus, X400): 2 µg/mL (≈ 2.07 µM); MIC ([9]; Staphylococcus epidermidis, 222): 1 µg/mL (≈ 1.03 µM); MIC ([10]; Staphylococcus epidermidis, EPI1): 2 µg/mL (≈ 2.07 µM); MIC [11]; 2041: 64 µg/mL (≈ 66.1 µM); MIC ([12]; X66): 16 µg/mL (≈ 16.5 µM); MIC ([13]; Streptococcus pneumoniae): 4 µg/mL (≈ 4.13 µM); MIC ([14]; Streptococcus pyogenes, C203): 2 µg/mL (≈ 2.07 µM); ED50 ([15]; C203, po, read-out: ED50 Oral): 14.2 mg/kg; ED50 ([15]; C203, sc, read-out: ED50 Subcutaneous): > 10 mg/kg
CCC1OC(=O)CC(O)C(C)C(OC2OC(C)C(O)C(N(C)C)C2O)C(CCOc2ccccc2)CC(C)C(=O)C=CC(C)=CC1COC1OC(C)C(OC(=O)C(NC(=O)OC(C)(C)C)c2ccccc2)C(OC)C1OC [Compound 6, 4ʹʹ-O-(N-BOC)-D-phenylglycyl-20-DH-20-O-phenyl-desmycosin] | > 128 | > 128 | > 128 | > 128 | > 128 | 16 (≈ 14.8 µM) | 8 (≈ 7.38 µM) | 8 (≈ 7.38 µM) | 8 (≈ 7.38 µM) | 8 (≈ 7.38 µM) | 16 (≈ 14.8 µM) | > 128 | > 128 | 16 (≈ 14.8 µM) | 8 (≈ 7.38 µM) |  |  | 
CCC1OC(=O)CC(O)C(C)C(OC2OC(C)C(O)C(N(C)C)C2O)C(CCOc2ccccc2)CC(C)C(=O)C=CC(C)=CC1COC1OC(C)C(OC(=O)C(N)c2ccccc2)C(OC)C1OC [Compound 7, 20-DH-20-O-Phenyl-4ʹʹ-O-(D-phenylglycyl)-desmycosin] | > 128 | 64 (≈ 65.1 µM) | 128 (≈ 130 µM) | > 128 | > 128 | 1 (≈ 1.02 µM) | 2 (≈ 2.03 µM) | 1 (≈ 1.02 µM) | 1 (≈ 1.02 µM) | 1 (≈ 1.02 µM) | 2 (≈ 2.03 µM) | 32 (≈ 32.5 µM) | 16 (≈ 16.3 µM) | 2 (≈ 2.03 µM) | 2 (≈ 2.03 µM) | 21 | > 10 | 
CCC1OC(=O)CC(O)C(C)C(OC2OC(C)C(OC(C)=O)C(N(C)C)C2OC(C)=O)C(CCOc2ccccc2)CC(C)C(=O)C=CC(C)=CC1COC1OC(C)C(OC(=O)CCl)C(OC)C1OC (centres unmarked) [Compound 8, 2ʹ,4ʹ-Di-O-acetyl-4ʹʹ-O-(chloroacetyl)-20-DH-20-O-phenyl-desmycosin] | > 128 | > 128 | > 128 | > 128 | > 128 | 2 (≈ 1.98 µM) | 2 (≈ 1.98 µM) | 2 (≈ 1.98 µM) | 2 (≈ 1.98 µM) | 2 (≈ 1.98 µM) | 2 (≈ 1.98 µM) | 128 (≈ 127 µM) | 32 (≈ 31.7 µM) | 8 (≈ 7.92 µM) | 2 (≈ 1.98 µM) |  |  | 
CCC1OC(=O)CC(O)C(C)C(OC2OC(C)C(O)C(N(C)C)C2O)C(CCOc2ccccc2)CC(C)C(=O)C=CC(C)=CC1COC1OC(C)C(OC(=O)CNCc2ccccc2)C(OC)C1OC (centres unmarked) [Compound 11, 4ʹʹ-O-(N-Benzylaminoacetyl)-20-DH-20-O-phenyl-desmycosin] | > 128 | 64 (≈ 64.2 µM) | 128 (≈ 128 µM) | > 128 | > 128 | 2 (≈ 2.01 µM) | 2 (≈ 2.01 µM) | 1 (≈ 1 µM) | 2 (≈ 2.01 µM) | 2 (≈ 2.01 µM) | 2 (≈ 2.01 µM) | 8 (≈ 8.02 µM) | 8 (≈ 8.02 µM) | 2 (≈ 2.01 µM) | 2 (≈ 2.01 µM) | 14.4 | 5.7 | 
CCC1OC(=O)CC(O)C(C)C(OC2OC(C)C(O)C(N(C)C)C2O)C(CCOc2ccccc2)CC(C)C(=O)C=CC(C)=CC1COC1OC(C)C(OC(=O)CN2CCN(C)CC2)C(OC)C1OC (centres unmarked) [Compound 15, 4ʹʹ-O-[(4-Methyl-piperazin-1-yl)acetyl]-20-DH-20-O-phenyl-desmycosin] | > 128 | 128 (≈ 129 µM) | 128 (≈ 129 µM) |  | > 128 | 4 (≈ 4.04 µM) | 4 (≈ 4.04 µM) | 4 (≈ 4.04 µM) | 4 (≈ 4.04 µM) | 4 (≈ 4.04 µM) | 8 (≈ 8.08 µM) | 16 (≈ 16.2 µM) | 16 (≈ 16.2 µM) | 1 (≈ 1.01 µM) | 2 (≈ 2.02 µM) | 29 | > 10 | MIC [3, 31]: > 128 µg/mL
CCC(C)CN(CC)CCC1CC(C)C(=O)C=CC(C)=CC(COC2OC(C)C(OC(C)=O)C(OC)C2OC)C(CC)OC(=O)CC(O)C(C)C1OC1OC(C)C(O)C(N(C)C)C1O (centres unmarked) [Compound 17, 4ʹʹ-O-Acetyl-20-DH-20-deoxy-20-[N-ethyl-N-(2-methylbutyl)amino]desmycosin] | > 128 | 128 (≈ 140 µM) | 64 (≈ 70.1 µM) |  | > 128 | 8 (≈ 8.76 µM) | 8 (≈ 8.76 µM) | 8 (≈ 8.76 µM) | 4 (≈ 4.38 µM) | 4 (≈ 4.38 µM) | 8 (≈ 8.76 µM) | 64 (≈ 70.1 µM) | 64 (≈ 70.1 µM) | 4 (≈ 4.38 µM) | 4 (≈ 4.38 µM) |  |  | MIC [3, 31]: > 128 µg/mL
CCC1OC(=O)CC(O)C(C)C(OC2OC(C)C(O)C(N(C)C)C2O)C(CCN2CC(C)CC(C)C2)CC(C)C(=O)C=CC(C)=CC1COC1OC(C)C(OC(C)=O)C(OC)C1OC (centres unmarked) [Compound 19, 4ʹʹ-O-Acetyl-20-DH-20-deoxy-20-(3,5-dimethylpiperidin-1-yl)-desmycosin] | > 128 | 64 (≈ 70.2 µM) | 32 (≈ 35.1 µM) | > 128 | > 128 | 1 (≈ 1.1 µM) | 1 (≈ 1.1 µM) | 2 (≈ 2.19 µM) | 1 (≈ 1.1 µM) | 1 (≈ 1.1 µM) | 1 (≈ 1.1 µM) | 8 (≈ 8.78 µM) | 8 (≈ 8.78 µM) | 0.125 (≈ 0.137 µM) | 0.125 (≈ 0.137 µM) |  |  | 
